The values that follow come from article PMC11020070, “Discovery of Protease-Activated Receptor 4 (PAR4)-Tethered Ligand Antagonists Using Ultralarge Virtual Screening” (ACS Pharmacology & Translational Science, 2024).

The IC50 is the concentration that gives 50% inhibition.

One experiment concerns the target T1, PAR4 (Homo sapiens, UniProt Q96RI0).
T1 sequence (Q96RI0 18-385): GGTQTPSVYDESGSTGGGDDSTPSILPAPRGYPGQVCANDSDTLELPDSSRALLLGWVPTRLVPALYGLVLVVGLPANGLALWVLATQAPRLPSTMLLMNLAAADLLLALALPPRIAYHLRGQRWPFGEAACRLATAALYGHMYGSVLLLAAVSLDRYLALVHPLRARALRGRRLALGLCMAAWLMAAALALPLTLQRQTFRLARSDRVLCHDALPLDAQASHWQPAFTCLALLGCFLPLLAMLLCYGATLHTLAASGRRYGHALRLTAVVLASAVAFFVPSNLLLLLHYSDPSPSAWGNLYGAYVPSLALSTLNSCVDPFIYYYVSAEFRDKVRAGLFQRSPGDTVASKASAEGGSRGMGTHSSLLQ
The experiment in a line: Human platelet activity assay, flow cytometry, γ-thrombin activation. The format is cell-based. More on the design: endogenous in cells; host or cells: washed human platelets from healthy volunteers. Particulars: human platelets, 100 nM γ-thrombin, GPIIbIIIa activation (PAC1); read-out: Human Platelets PAC1 IC50. The protocol: To test the antagonistic effect of the compounds on PAR4, a flow cytometry assay of human platelets was employed. Each compound was screened at 10 μM in human platelets using flow cytometry for GPIIbIIIa activation (PAC1) and P-selectin (CD62p) expression as previously described.[4] Activation of GPIIbIIIa allows interaction with divalent fibrinogen or multivalent von Willebrand factor, leading to platelet aggregation.[41] PAR4 stimulation also triggers α-granule secretion containing P-selectin.[5] […] Platelets were treated with each test compound or vehicle control DMSO before activating with γ-thrombin (100 nM) or PAR4 agonist peptide mimetic (200 μM, “PAR4-AP” AYPGKF) for 30 min. γ-thrombin activates PAR4 but not PAR1.[42]
Activation of washed human platelets was monitored by flow cytometry for the detection of PAC1 (GPIIbIIIa activation) and CD62p (P-selectin expression) binding as previously described.[4] Human platelets were obtained from healthy volunteers. The Vanderbilt University Internal Review Board approved these studies. Informed consent was obtained from all individuals prior to the blood draw. 10 mL of whole blood was collected into 0.32% Na citrate. Platelet-rich plasma was collected after room-temperature centrifugation at 1100 rpm for 15 min on a Thermo Forma 400 centrifuge (Thermo Fisher, Waltham, MA). 1/10 volume of acid citrate dextrose (ACD) buffer was added to the collected supernatant and incubated for 10 min. After centrifugation at 2400 rpm for 10 min, the platelet pellet was resuspended in 1 mL Tyrode’s buffer (“TBB”: 15 mM HEPES, 0.33 mM NaH2PO4, pH 6.4, 138 mM NaCl, 2.7 mM KCl, 1 mM MgCl2, 5.5 mM dextrose, 0.1% bovine serum albumin). Platelets were collected, counted on a Z1 Coulter Particle Counter (Beckman Coulter, Brea, CA), and diluted in TBB to 1.5 × 10^7 platelets/mL. 60 uL of platelets were aliquoted to each tube and preincubated with 40 μL of TBB with antibodies PAC1 FITC (Becton Dickinson, Franklin Lakes NJ) and P-selectin PE (Becton Dickinson) and either test compound antagonist or DMSO vehicle control for 20 min. Platelets were then activated with 100 nM γ-thrombin or other agonists for 30 min. Samples were then fixed by adding 100 μL of 2% paraformaldehyde. After 30 min, samples were diluted by adding 300 μL of phosphate-buffered saline (PBS) and stored at 4C. Data were collected on a three-laser BD LSRFortessa (Becton Dickinson) and analyzed with FlowJo software (FlowJo LLC, Ashland, OR). The mean fluorescence intensity (geometric) of PE and FITC was determined from 30,000 events after compensation correction. Data were normalized to vehicle (DMSO) controls.
Compounds were screened for inhibition activity against human PAR4 using 100 nM γ-thrombin or 200 μM PAR4-AP in a single-point assay (10 μM test compound).
Take `Cc1nc(NC(=O)c2cc(-c3ccccc3)[nH]n2)n[nH]1` [Compound 8]: the IC50 worked out at 2790 nM.
On the same count and under the same terms, to `Cc1nc(NC(=O)c2cc(C(=O)OC(C)(C)C)n(-c3ccccc3)n2)n[nH]1` [Compound 10] belongs 1130 nM; to `CC(C)c1cc(C(=O)Nc2n[nH]c(-c3c(F)cccc3F)n2)nn1C` [Compound 11], 606 nM.
Same read-out and setting: to `Cn1nc(C(=O)Nc2n[nH]c(-c3ccccc3F)n2)cc1C1CC1` [Compound 13] belongs 593 nM.
For `Cn1nc(C(=O)Nc2n[nH]c(-c3ccccc3Cl)n2)cc1C1CC1` [Compound 14], the IC50 is 835 nM.
As to `CCc1cc(C(=O)Nc2n[nH]c(-c3c(F)cccc3F)n2)nn1C` [Compound 15], the IC50 was found to be 495 nM.
The same measure, in the same setting: to `Cn1nc(C(=O)Nc2n[nH]c(-c3ccc(C#N)cc3)n2)cc1C1CC1` [Compound 16] belongs 460 nM.
On the same count and under the same terms, to `Cc1n[nH]c(NC(=O)c2nn(-c3cccc(F)c3)c3c2CCC3)n1` [Compound 19] belongs 923 nM; to `Cc1n[nH]c(NC(=O)c2nn(-c3ccc(F)cc3)c3c2CCC3)n1` [Compound 21], 3250 nM; to `O=C(Nc1n[nH]c(C2CC2)n1)c1nn(-c2ccccc2)c2c1CCC2` [Compound 24], 392 nM.
On the same count and under the same terms, the value for `O=C(Nc1n[nH]c(C2CC2)n1)c1nn(-c2ccccc2)c2c1CCCC2` [Compound 26] was 182 nM; that for `O=C(Nc1n[nH]c(-c2cccc(C(F)(F)F)c2)n1)c1nn(-c2ccccc2)c2c1CCCC2` [Compound 27] was 152 nM; that for `O=C(Nc1n[nH]c(C2CC2)n1)c1nn(-c2cccc(F)c2)c2c1CCCC2` [Compound 28] was 254 nM.
Consider `O=C(Nc1n[nH]c(-c2ccccc2)n1)c1nn(-c2ccccc2)c2c1CCCC2` [Compound 29], for which the IC50 amounted to 450 nM.
Same read-out and setting: to `N#Cc1ccc(-c2nc(NC(=O)c3nn(-c4ccccc4)c4c3CCCC4)n[nH]2)cc1` [Compound 30] belongs 395 nM.

Staying with this experiment, now noted: human platelets, 100 nM γ-thrombin, P-selectin (CD62p); read-out: Human Platelets P-Sel IC50.
As to `Cc1nc(NC(=O)c2cc(-c3ccccc3)[nH]n2)n[nH]1` [Compound 8], the IC50 was found to be 2210 nM.
Same read-out and setting: to `Cc1nc(NC(=O)c2cc(C(=O)OC(C)(C)C)n(-c3ccccc3)n2)n[nH]1` [Compound 10] belongs 1160 nM; to `CC(C)c1cc(C(=O)Nc2n[nH]c(-c3c(F)cccc3F)n2)nn1C` [Compound 11], 847 nM; to `Cn1nc(C(=O)Nc2n[nH]c(-c3ccccc3F)n2)cc1C1CC1` [Compound 13], 630 nM.
Turning to `Cn1nc(C(=O)Nc2n[nH]c(-c3ccccc3Cl)n2)cc1C1CC1` [Compound 14], the IC50 stood at 1040 nM.
As for `CCc1cc(C(=O)Nc2n[nH]c(-c3c(F)cccc3F)n2)nn1C` [Compound 15], the IC50 stood at 580 nM.
Same read-out and setting: the value for `Cn1nc(C(=O)Nc2n[nH]c(-c3ccc(C#N)cc3)n2)cc1C1CC1` [Compound 16] was 569 nM; that for `Cc1n[nH]c(NC(=O)c2nn(-c3cccc(F)c3)c3c2CCC3)n1` [Compound 19] was 1390 nM.
The same measure, in the same setting: the value for `Cc1n[nH]c(NC(=O)c2nn(-c3ccc(F)cc3)c3c2CCC3)n1` [Compound 21] was 4780 nM; that for `O=C(Nc1n[nH]c(C2CC2)n1)c1nn(-c2ccccc2)c2c1CCC2` [Compound 24] was 523 nM.
Still for that read-out and setting: the value for `O=C(Nc1n[nH]c(C2CC2)n1)c1nn(-c2ccccc2)c2c1CCCC2` [Compound 26] was 228 nM.
`O=C(Nc1n[nH]c(-c2cccc(C(F)(F)F)c2)n1)c1nn(-c2ccccc2)c2c1CCCC2` [Compound 27]: the IC50 came to 208 nM.
The same measure, in the same setting: the value for `O=C(Nc1n[nH]c(C2CC2)n1)c1nn(-c2cccc(F)c2)c2c1CCCC2` [Compound 28] was 280 nM; that for `O=C(Nc1n[nH]c(-c2ccccc2)n1)c1nn(-c2ccccc2)c2c1CCCC2` [Compound 29] was 603 nM.
The same measure, in the same setting: the value for `N#Cc1ccc(-c2nc(NC(=O)c3nn(-c4ccccc4)c4c3CCCC4)n[nH]2)cc1` [Compound 30] was 496 nM.

The target in another experiment is T2, mouse PAR4 (Mus musculus, UniProt O88634).
T2 construct: washed mouse platelets were prepared by collecting cardiac puncture blood; endogenous in cells; host or cells: washed mouse platelets (cardiac puncture blood)
T2 sequence (O88634 17-396): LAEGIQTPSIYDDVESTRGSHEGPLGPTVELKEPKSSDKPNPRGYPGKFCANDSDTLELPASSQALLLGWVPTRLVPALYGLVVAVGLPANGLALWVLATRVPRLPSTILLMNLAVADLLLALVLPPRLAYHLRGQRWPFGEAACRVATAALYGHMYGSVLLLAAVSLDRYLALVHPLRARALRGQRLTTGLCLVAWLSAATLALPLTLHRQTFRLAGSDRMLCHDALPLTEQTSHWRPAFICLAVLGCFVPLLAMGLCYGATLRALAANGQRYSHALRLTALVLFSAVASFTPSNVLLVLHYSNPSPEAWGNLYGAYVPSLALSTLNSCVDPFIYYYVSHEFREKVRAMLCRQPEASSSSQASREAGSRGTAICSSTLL
The experiment in a line: Mouse platelet activity assay, flow cytometry, γ-thrombin activation. It counts as cell-based. Particulars: mouse platelets, 316 nM γ-thrombin, GPIIbIIIa (JonA); read-out: Mouse Platelets JonA IC50. The protocol:
For mouse PAR4 activity, washed mouse platelets were prepared by collecting cardiac puncture blood with 200 μL of 20 U/mL heparin. Following centrifugation at 1000 rpm for 15 min, plasma and buffy coat were collected into a separate tube and spiked with apyrase and PGE1. After centrifuging at 1000 rpm for 8 min, the platelet-rich plasma was transferred to another tube and centrifuged at 2200 rpm for 10 min to pellet the platelets. Platelets were resuspended in TBB + apyrase + PGE1. Platelets were counted and diluted in TBB to a final concentration of 2 × 10^7 platelets/mL. 50 μL of platelets were aliquoted to each tube preincubated with 50 μL of TBB with antibodies for mouse GPIIbIIIa and P-selectin (Emfret, Eibelstadt Germany) and either test compound antagonist or DMSO control. Platelets were activated with 316 nM γ-thrombin for 30 min. Samples were then fixed with 100 μL of 2% paraformaldehyde for 20 min and diluted with 300 μL of PBS. Flow cytometry counts are measured as for human platelets on a three-laser BD LSRFortessa (Becton Dickinson) and analyzed with FloJo software.
On to `Cc1nc(NC(=O)c2cc(C(=O)OC(C)(C)C)n(-c3ccccc3)n2)n[nH]1` [Compound 10], for which the half-maximal inhibitory concentration (IC50) stood at 11300 nM.
Still for that read-out and setting: to `CC(C)c1cc(C(=O)Nc2n[nH]c(-c3c(F)cccc3F)n2)nn1C` [Compound 11] belongs 1090 nM; to `Cn1nc(C(=O)Nc2n[nH]c(-c3ccccc3F)n2)cc1C1CC1` [Compound 13], 715 nM.
On the same count and under the same terms, to `Cn1nc(C(=O)Nc2n[nH]c(-c3ccccc3Cl)n2)cc1C1CC1` [Compound 14] belongs 1340 nM.
Still for that read-out and setting: to `CCc1cc(C(=O)Nc2n[nH]c(-c3c(F)cccc3F)n2)nn1C` [Compound 15] belongs 672 nM.
In the case of `Cn1nc(C(=O)Nc2n[nH]c(-c3ccc(C#N)cc3)n2)cc1C1CC1` [Compound 16], the IC50 was 1140 nM.
The same measure, in the same setting: the value for `Cc1n[nH]c(NC(=O)c2nn(-c3cccc(F)c3)c3c2CCC3)n1` [Compound 19] was 1190 nM.
Still for that read-out and setting: to `O=C(Nc1n[nH]c(C2CC2)n1)c1nn(-c2ccccc2)c2c1CCC2` [Compound 24] belongs 958 nM.
Consider `O=C(Nc1n[nH]c(C2CC2)n1)c1nn(-c2ccccc2)c2c1CCCC2` [Compound 26], for which the IC50 was 354 nM.
Still for that read-out and setting: the value for `O=C(Nc1n[nH]c(-c2cccc(C(F)(F)F)c2)n1)c1nn(-c2ccccc2)c2c1CCCC2` [Compound 27] was 367 nM.
In the case of `O=C(Nc1n[nH]c(C2CC2)n1)c1nn(-c2cccc(F)c2)c2c1CCCC2` [Compound 28], the IC50 is 981 nM.
Same read-out and setting: to `O=C(Nc1n[nH]c(-c2ccccc2)n1)c1nn(-c2ccccc2)c2c1CCCC2` [Compound 29] belongs 1110 nM; to `N#Cc1ccc(-c2nc(NC(=O)c3nn(-c4ccccc4)c4c3CCCC4)n[nH]2)cc1` [Compound 30], 1840 nM.

The experiment is the same for the next values; noted with them: mouse platelets, 316 nM γ-thrombin, P-selectin; read-out: Mouse Platelets P-Sel IC50.
With `Cc1nc(NC(=O)c2cc(C(=O)OC(C)(C)C)n(-c3ccccc3)n2)n[nH]1` [Compound 10], the IC50 amounted to 6160 nM.
Regarding `CC(C)c1cc(C(=O)Nc2n[nH]c(-c3c(F)cccc3F)n2)nn1C` [Compound 11], the IC50 came out at 1630 nM.
Consider `Cn1nc(C(=O)Nc2n[nH]c(-c3ccccc3F)n2)cc1C1CC1` [Compound 13], for which the IC50 came to 699 nM.
On the same count and under the same terms, to `Cn1nc(C(=O)Nc2n[nH]c(-c3ccccc3Cl)n2)cc1C1CC1` [Compound 14] belongs 1290 nM; to `CCc1cc(C(=O)Nc2n[nH]c(-c3c(F)cccc3F)n2)nn1C` [Compound 15], 807 nM; to `Cn1nc(C(=O)Nc2n[nH]c(-c3ccc(C#N)cc3)n2)cc1C1CC1` [Compound 16], 1180 nM.
Same read-out and setting: the value for `Cc1n[nH]c(NC(=O)c2nn(-c3cccc(F)c3)c3c2CCC3)n1` [Compound 19] was 1140 nM.
As to `O=C(Nc1n[nH]c(C2CC2)n1)c1nn(-c2ccccc2)c2c1CCC2` [Compound 24], the IC50 amounted to 1130 nM.
Same read-out and setting: the value for `O=C(Nc1n[nH]c(C2CC2)n1)c1nn(-c2ccccc2)c2c1CCCC2` [Compound 26] was 351 nM; that for `O=C(Nc1n[nH]c(-c2cccc(C(F)(F)F)c2)n1)c1nn(-c2ccccc2)c2c1CCCC2` [Compound 27] was 368 nM.
Regarding `O=C(Nc1n[nH]c(C2CC2)n1)c1nn(-c2cccc(F)c2)c2c1CCCC2` [Compound 28], the IC50 was 793 nM.
The same measure, in the same setting: to `O=C(Nc1n[nH]c(-c2ccccc2)n1)c1nn(-c2ccccc2)c2c1CCCC2` [Compound 29] belongs 1160 nM; to `N#Cc1ccc(-c2nc(NC(=O)c3nn(-c4ccccc4)c4c3CCCC4)n[nH]2)cc1` [Compound 30], 1420 nM.
